# According to US20070299092A1 (Wyeth, priority 2004, published 2007):
# “And” between values parts separate entries of the source, which are not always exact repeats. Equal entries are not always repeated. Where two headings read alike, the source gives them in different places.
# Tests used:
# [1] = biological target: T1, human KDR (VEGF-receptor-2) (Homo sapiens, UniProt P35968); experiment: KDR kinase enzyme assay (DELFIA, KDR-IC-Flag, poly(Glu4-Tyr) peptide); format: biochemical; details: for inhibition at 0.1 µM: Concentration 100 nM; for inhibition at 0.1 µM / inhibition at 1 µM: read-out: % Inhibition; for inhibition at 1 µM: Concentration 1000 nM
# T1 construct: beginning at Met-806; (5′-ATG GAT CCA GAT GM CTC CCA TTG) and ending at Val-1356; made in house
# [2] = system: Human umbilical vein endothelial cells (HUVEC); experiment: HUVEC proliferation assay, VEGF-dependent growth ([3H]-thymidine incorporation); format: cell-based; details: for inhibition at 10 µM / inhibition at 0.1 µM / inhibition at 1 µM: Homo sapiens, HUVEC; for inhibition at 0.1 µM: conc. 100 nM
# Procedure: Cells were plated into 96-well dishes (4000 cells per well) and allowed to attach overnight. HUVEC were rinsed one time with 100 μl of EBMc-V (EBM supplemented with all above components except serum or VEGF), then 50 ul of EBMc-V was added to cells. Compounds were prepared at 200× stocks in DMSO, diluted into EBMc-V media as 4× stocks, then 50 ul added to appropriate wells. Finally, 100 μl of 2×VEGF (100 ng/ml prepared in EBMc-V; final 50 ng/ml VEGF) was added to all VEGF-treated wells. EBMc-V (no VEGF) was added to negative control wells. Parallel compound-treated plates were prepared except that 100 μl of EGM2 media containing 2% serum but lacking VEGF (EGMc-V) was added. Cells were incubated for 4-5 days at 37° C.
# DNA synthesis was assessed by thymidine incorporation. Cells were incubated for 5 hours in 1 μCi of [^3H]-thymidine (PerkinElmer) by addition of 10 ul of 0.1 μCi/ul thymidine prepared in PBS to each well. After incubation, media was aspirated and the cells trypsinized and collected onto a mat using a vacuum-based Micro Cell Harvester (Skatron). [^3H]-thymidine was counted in a liquid scintillation counter. Compounds evaluated for ability to inhibit VEGF-dependent growth of human umbilical vein endothelial cells (HUVEC).
# KDR = KDR (Homo sapiens, UniProt P35968); experiment: cell-based; details: for inhibition at 1 µM: read-out: % Inhibition of KDR kinase autophosphorylation in KDR15 cells, compound conc. 1000 nM
# Sequence of KDR (P35968 20-1356): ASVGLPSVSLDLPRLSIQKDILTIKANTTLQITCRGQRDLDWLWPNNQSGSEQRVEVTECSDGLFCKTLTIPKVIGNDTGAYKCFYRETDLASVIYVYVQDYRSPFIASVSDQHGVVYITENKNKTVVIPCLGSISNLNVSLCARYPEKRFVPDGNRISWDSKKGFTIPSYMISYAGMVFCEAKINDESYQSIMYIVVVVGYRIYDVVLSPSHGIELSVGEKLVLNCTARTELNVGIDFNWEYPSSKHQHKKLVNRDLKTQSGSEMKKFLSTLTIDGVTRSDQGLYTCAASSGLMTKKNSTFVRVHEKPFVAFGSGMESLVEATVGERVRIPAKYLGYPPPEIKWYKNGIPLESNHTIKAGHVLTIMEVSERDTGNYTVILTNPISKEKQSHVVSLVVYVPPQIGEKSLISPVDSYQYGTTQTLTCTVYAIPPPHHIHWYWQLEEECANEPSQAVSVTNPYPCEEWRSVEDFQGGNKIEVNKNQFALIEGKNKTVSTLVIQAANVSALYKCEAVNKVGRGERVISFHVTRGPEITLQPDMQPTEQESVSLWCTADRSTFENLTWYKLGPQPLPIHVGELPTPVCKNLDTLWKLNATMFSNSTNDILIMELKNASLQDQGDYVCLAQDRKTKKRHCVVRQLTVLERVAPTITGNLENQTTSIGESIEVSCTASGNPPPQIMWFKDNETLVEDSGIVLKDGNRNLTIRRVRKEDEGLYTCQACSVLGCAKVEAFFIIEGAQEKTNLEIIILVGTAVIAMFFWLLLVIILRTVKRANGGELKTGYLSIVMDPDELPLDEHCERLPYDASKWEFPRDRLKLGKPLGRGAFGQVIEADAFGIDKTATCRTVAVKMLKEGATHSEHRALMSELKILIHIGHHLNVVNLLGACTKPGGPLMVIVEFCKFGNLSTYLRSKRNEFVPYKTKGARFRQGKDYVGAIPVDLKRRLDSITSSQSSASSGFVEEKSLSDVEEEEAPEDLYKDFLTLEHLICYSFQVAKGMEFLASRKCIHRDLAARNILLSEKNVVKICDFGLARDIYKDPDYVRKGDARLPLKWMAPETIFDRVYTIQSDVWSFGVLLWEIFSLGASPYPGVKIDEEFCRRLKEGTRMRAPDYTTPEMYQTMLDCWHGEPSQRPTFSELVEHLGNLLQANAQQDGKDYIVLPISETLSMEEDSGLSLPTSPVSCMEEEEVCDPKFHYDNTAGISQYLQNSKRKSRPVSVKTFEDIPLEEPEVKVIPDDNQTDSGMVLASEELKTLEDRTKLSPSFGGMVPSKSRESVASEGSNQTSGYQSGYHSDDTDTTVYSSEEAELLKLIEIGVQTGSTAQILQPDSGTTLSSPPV
# T1 sequence (P35968 806-1356): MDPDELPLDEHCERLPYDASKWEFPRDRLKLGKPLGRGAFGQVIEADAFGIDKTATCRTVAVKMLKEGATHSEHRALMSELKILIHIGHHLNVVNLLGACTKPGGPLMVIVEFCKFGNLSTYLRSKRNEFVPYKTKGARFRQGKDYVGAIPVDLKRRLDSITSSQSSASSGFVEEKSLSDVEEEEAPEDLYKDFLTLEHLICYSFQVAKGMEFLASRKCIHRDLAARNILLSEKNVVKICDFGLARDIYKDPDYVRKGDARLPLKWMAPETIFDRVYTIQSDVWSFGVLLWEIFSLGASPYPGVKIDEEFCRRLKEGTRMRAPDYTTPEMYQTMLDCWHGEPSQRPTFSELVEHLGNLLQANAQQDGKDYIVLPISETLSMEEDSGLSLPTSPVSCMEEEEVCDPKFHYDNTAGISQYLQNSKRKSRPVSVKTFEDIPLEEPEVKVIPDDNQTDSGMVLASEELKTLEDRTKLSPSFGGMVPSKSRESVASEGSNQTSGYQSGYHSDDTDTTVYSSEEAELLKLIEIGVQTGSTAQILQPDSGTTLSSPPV
IC50 ([1]; ATP conc. 10 μM),IC50 ([1]; ATP conc. 100 μM) [nM],IC50 ([1]; ATP conc. 1000 μM) [nM],inhibition at 0.1 µM ([1]; ATP conc. 10 μM) [%],inhibition at 1 µM ([1]; ATP conc. 10 μM) [%],inhibition at 1 µM ([1]; ATP conc. 1000 μM) [%],"IC50 (KDR; IC50 (nM), inhibition of KDR kinase autophosphorylation in KDR15 cells, KDR15 cells, VEGF 50 ng/ml, phospho-KDR-Y996 immunoblot) [nM]","inhibition at 0.5 µM (KDR; read-out: % Inhibition of KDR kinase autophosphorylation in KDR15 cells, compound conc. 500 nM) [%]",inhibition at 1 µM (KDR) [%],SMILES,inhibition at 10 µM ([2]; conc. 10000 nM) [%],% Inhibition of VEGF-dependent growth of HUVEC ([2]; conc. 1000 nM),% Inhibition of VEGF-dependent growth of HUVEC ([2]; conc. 10000 nM),inhibition at 0.1 µM [2] [%],inhibition at 1 µM ([2]; conc. 1000 nM) [%]
175 nM and 177 nM,200,239,51,82,80,172,25,,"CCC1=CC(=O)C(Nc2ncnc3cc(OC)c(OC)cc23)=CC1=O [Example 8, 2-[(6,7-dimethoxy-4-quinazolinyl)amino]-5-ethylbenzo-1,4-quinone]",87,30% and 51% and 37%,98% and 89%,,
3.5 nM,,,91,94,,,,140,"COCCOc1cc2ncnc(NC3=CC(=O)C(Oc4ccc(C(=O)c5ccccc5)cc4)=CC3=O)c2cc1OC [Example 39, 2-(4-benzoylphenoxy)-5-{[6-methoxy-7-(2-methoxyethoxy)quinazolin-4-yl]amino}benzo-1,4-quinone]",99,,,18,58
2 nM,,,92,92,,,,120,"COCCOc1cc2ncnc(NC3=CC(=O)C(Oc4ccc5c(c4)[nH]c4ccccc45)=CC3=O)c2cc1OC [Example 41, 2-(9H-carbazol-2-yloxy)-5-{[6-methoxy-7-(2-methoxyethoxy)quinazolin-4-yl]amino}benzo-1,4-quinone]",98,,,-5,42
,,,91,93,,,,105,"COCCOc1cc2ncnc(NC3=CC(=O)C(Oc4ccc5cc(Br)ccc5c4)=CC3=O)c2cc1OC [Example 51, 2-[(6-bromo-2-naphthyl)oxy]-5-{[6-methoxy-7-(2-methoxyethoxy)quinazolin-4-yl]amino}benzo-1,4-quinone]",,,,,
,,,91,95,,,,94,"COCCOc1cc2ncnc(NC3=CC(=O)C(Oc4ccccc4OCc4ccccc4)=CC3=O)c2cc1OC [Example 52, 2-[2-(benzyloxy)phenoxy]-5-{[6-methoxy-7-(2-methoxyethoxy)quinazolin-4-yl]amino}benzo-1,4-quinone]",,,,,
,,,90,94,,,,79,"COCCOc1cc2ncnc(NC3=CC(=O)C(Oc4ccc5c(c4)Cc4ccccc4-5)=CC3=O)c2cc1OC [Example 53, 2-(9H-fluoren-2-yloxy)-5-{[6-methoxy-7-(2-methoxyethoxy)quinazolin-4-yl]amino}benzo-1,4-quinone]",,,,,
,,,-2,10,,,,-5,"COCCOc1cc2ncnc(NC3=CC(=O)C(Oc4ccc(CCN)cc4)=CC3=O)c2cc1OC [Example 54, 2-[4-(2-aminoethyl)phenoxy]-5-{[6-methoxy-7-(2-methoxyethoxy)quinazolin-4-yl]amino}benzo-1,4-quinone]",,,,,
,,,27,89,84,,,4,"COCCOc1cc2ncnc(NC3=CC(=O)C(N(C)c4cccc(F)c4)=CC3=O)c2cc1OC [Example 74, 2-[(3-fluorophenyl)(methyl)amino]-5-{[6-methoxy-7-(2-methoxyethoxy)quinazolin-4-yl]amino}benzo-1,4-quinone]",,,,,
,,,15,30,45,,,12,"COCCOc1cc2ncnc(NC3=CC(=O)C(N(C)Cc4ccccc4)=CC3=O)c2cc1OC [Example 82, 2-[benzyl(methyl)amino]-5-{[6-methoxy-7-(2-methoxyethoxy)quinazolin-4-yl]amino}benzo-1,4-quinone]",,,,,
